Data reported in patent US9006221B2, “Method of modulating ship activity” (H. Lee Moffitt Cancer Center and Reserach Institute, Inc., priority 2008, dated 2015).

Molecular target: T1, SHIP2 (Homo sapiens, UniProt O15357)
T1 sequence (O15357 1-1258): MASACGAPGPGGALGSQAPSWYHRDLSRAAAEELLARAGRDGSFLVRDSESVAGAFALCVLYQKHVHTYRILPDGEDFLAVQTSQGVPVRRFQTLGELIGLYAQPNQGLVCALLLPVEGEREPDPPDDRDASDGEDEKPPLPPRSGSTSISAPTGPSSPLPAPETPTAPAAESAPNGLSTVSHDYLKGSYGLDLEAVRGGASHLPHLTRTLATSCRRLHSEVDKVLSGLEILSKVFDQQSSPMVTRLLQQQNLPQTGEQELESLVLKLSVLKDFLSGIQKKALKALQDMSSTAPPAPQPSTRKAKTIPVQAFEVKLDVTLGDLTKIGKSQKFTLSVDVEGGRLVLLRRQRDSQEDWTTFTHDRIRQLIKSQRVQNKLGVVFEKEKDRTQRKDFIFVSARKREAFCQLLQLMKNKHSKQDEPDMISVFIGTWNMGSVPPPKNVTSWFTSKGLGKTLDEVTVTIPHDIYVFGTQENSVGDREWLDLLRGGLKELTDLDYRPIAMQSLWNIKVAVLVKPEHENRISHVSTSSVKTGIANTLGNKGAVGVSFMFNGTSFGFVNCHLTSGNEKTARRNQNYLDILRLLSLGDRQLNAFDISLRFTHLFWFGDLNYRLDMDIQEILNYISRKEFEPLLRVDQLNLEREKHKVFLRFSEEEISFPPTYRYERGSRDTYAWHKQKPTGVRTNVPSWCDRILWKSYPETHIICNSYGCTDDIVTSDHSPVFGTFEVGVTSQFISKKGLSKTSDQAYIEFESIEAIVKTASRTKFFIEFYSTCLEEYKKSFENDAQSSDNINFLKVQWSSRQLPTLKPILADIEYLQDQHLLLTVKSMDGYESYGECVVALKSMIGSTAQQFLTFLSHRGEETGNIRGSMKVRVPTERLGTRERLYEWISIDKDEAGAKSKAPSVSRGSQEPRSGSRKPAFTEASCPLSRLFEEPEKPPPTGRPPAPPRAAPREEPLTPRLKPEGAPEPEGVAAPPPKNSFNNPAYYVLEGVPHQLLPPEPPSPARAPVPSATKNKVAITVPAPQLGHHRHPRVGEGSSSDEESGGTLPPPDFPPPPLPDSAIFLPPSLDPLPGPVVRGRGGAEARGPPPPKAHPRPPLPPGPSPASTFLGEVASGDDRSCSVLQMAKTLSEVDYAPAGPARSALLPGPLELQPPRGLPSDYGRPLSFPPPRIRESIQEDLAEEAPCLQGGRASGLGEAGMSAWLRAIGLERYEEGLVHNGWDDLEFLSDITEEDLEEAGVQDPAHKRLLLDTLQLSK
Assay: FP assay of SHIP2 enzymatic activity
Format: biochemical
From the text: No Compound—FP assay conducted with purified SHIP1 or SHIP2 as indicated in the absence of inhibitor. No Enzyme—FP assay conducted in SHIP buffer and fluorescent substrate in the absence of enzyme.
Thus far, none of the inhibitors have been identified as selective for SHIP1 over SHIP2. The majority of SHIP inhibitors identified show selectivity for 5′ inositol phosphatases and thus might be used to target SHIP1 or SHIP2 activity.
Assay of SHIP1 enzymatic activity: A fluorescent polarization (FP) assay that detects the 5′-inositol phosphatase activity of SHIP1 was developed based on a previously established protocol [Drees B E, et al., Comb Chem High Throughput Screen (2003) 6(4):321-330] and was obtained from Echelon Biosciences (Salt Lake City, USA). Modifications of the protocol included the application of SHIP1 in the assay and an increase in the concentration of MgCl2 to […] to maximize the activity of SHIP1 in this assay. Each enzymatic reaction was performed in a 96 well working plate and added in the following order and concentration: Recombinant SHIP1 (0.1 μg) in PBS+20 mM MgCl2, 100 μM of each individual compound from the NCI Diversity Set and then PI(3,4,5)P3 substrate diluted 1:10 in H2O. The enzymatic reaction was incubated for 30 min at room temperature. The detector, reaction mixture and probe were then combined according to the SHIP2 protocol. […]

How did the “inhibition of SHIP2 enzymatic activity” value turn out when `OC(c1cc(-c2ccccc2)nc2c1ccc1ccccc12)C1CCCCN1` (centres unmarked) [NSC13480, (2-phenylbenzo[h]quinolin-4-yl)-piperidin-2-ylmethanol] was run?
The value was “inhibit both SHIP1 and SHIP2 enzymatic activity”.

With `CC(C)CCC[C@@H](C)[C@H]1CC[C@H]2[C@@H]3CC[C@H]4C[C@H](N)CC[C@]4(C)[C@H]3CC[C@]12C` [NSC23922, (3R,5S,8R,9S,10S,13R,14S,17R)-10,13-dimethyl-17-[(2R)-6-methylheptan-2-yl]-2,3,4,5,6,7,8,9,11,12,14,15,16,17-tetradecahydro-1H-cyclopenta[a]phenanthren-3-amine] as the compound, how does the “inhibition of SHIP2 enzymatic activity” value read?
The value was “inhibit both SHIP1 and SHIP2 enzymatic activity”.
